Assay results published in patent publication US20220064167A1, “IMIDAZO-PYRAZOLE CARBOXAMIDE DERIVATIVES AS ANTICANCER AGENTS AND THE SYNTHESIS THEREOF” (AVIDIN KFT., priority 2018, published 2022).
pIC50: −log10 of the molar value.

Assays:
[1] = tested on: HL-60 cells; test: resazurin viability assay, Example 103 (FIG. 1); format: cell-based; conditions: Homo sapiens, 72 h incubation, 20.000 cells/well, read-out: half-inhibitory concentration (IC50) on viability of HL-60 cells
Method: The human primary fibroblasts (6000 cells/well) and Hl60 cells (20.000 cells/well) were seeded into 96-well plates (Corning Life Sciences) in media. Fibroblasts were cultured overnight before treatment. Effects of compounds described in Example 22, 60 and 83 were examined in concentrations of 1 μM, 250 nM, 62.5 nM, 15.6 nM, 3.9 nM and 0.9 nM in 100 μl after 72 h incubation. Resazurin reagent was prepared and used as described in Example 1.
(§1) Viability was calculated with relation to untreated control cells and blank wells containing media without cells. IC50 values (50% inhibiting concentration) were calculated by GraphPad Prism® 5.

[2] = tested on: human primary fibroblasts; test: resazurin viability assay on primary fibroblasts, Example 103 (FIG. 1); format: cell-based; conditions: 72 h incubation, applied concentration range 1.6 nM-5 μM
Text: To obtain primary human fibroblasts healthy volunteers (age 18-60 years) were enrolled into the study. The punch biopsies were taken from healthy subjects from the breast area undergoing plastic surgery. Primary fibroblasts were obtained from the skin by enzymatic digestion according to a standard protocol. Skin specimens were first washed in Salsol A solution (Human Rt, Gödöllö, Hungary) supplemented with 2% antibiotic/antimycotic solution (Sigma-Aldrich). Skin samples were then cut into narrow strips and incubated in Dispase solution (Roche Diagnostics, Mannheim, Germany) overnight at 4° C. The epidermis was subsequently separated from the dermis. Fibroblasts were obtained by incubating the dermis in Digestion Mix solution (Collagenase, Hyaluronidase and Deoxyribonuclease) for 2h at 37° C. Cell suspensions were filtered through a 100 μm nylon mesh (BD Falcon, San Jose, Calif., USA) and cells were pelleted by centrifugation. Fibroblasts were grown in low glucose DMEM medium containing 5% FBS, 1% antibiotic/antimycotic (PAA, Pasching, Austria) and 1% L-glutamine solution (PAA). Fibroblasts were cultured at 37° C. and 5% CO2 in humidified conditions. Depending on the cell growth, the medium was changed every 2-4 days and cells were passaged at 80% of confluence.
The human primary fibroblasts (6000 cells/well) and Hl60 cells (20.000 cells/well) were seeded into 96-well plates (Corning Life Sciences) in media. Fibroblasts were cultured overnight before treatment. […] Resazurin reagent was prepared and used as described in Example 1.
as §1

[3] = tested on: A375 (human melanoma); test: viability assay (Table 2); format: cell-based; conditions: A-375
Method: (§2) For viability assays cells were seeded in 96 well plates (MCF7 and 4T1: 6000, HL60: 120.000 cells/well) and incubated overnight. Compounds were dissolved in dimethyl sulfoxide (DMSO). Cells were treated with an increasing concentration of compounds having the general formula (I.) (156 nM-100 μM). Cell viability was determined after 72h incubation. Resazurin reagent (Sigma-Aldrich) was dissolved in PBS (pH 7.4) at 0.15 mg/ml concentration, sterile filtered (0.22 μm, Merck Millipore) and aliquoted at −20° C. Resazurin reagent (Sigma-Aldrich) was added at a final concentration of 25 μg/ml. After 2 hours incubation at 37° C. 5% CO2 fluorescence (530 nm excitation/580 nm emission) was recorded on a multimode microplate reader (Cytofluor4000, PerSeptive Biosytems). Viability was calculated with relation to untreated control cells and blank wells containing media without cells. IC50 values (50% inhibiting concentration) were calculated by GraphPad Prism® 5 (La Jolla, Calif., USA).
(§3) GBM2 (human glioblastoma), HeLa (human cervical carcinoma), MIA PaCa-2 (human pancreas carcinoma) and U87MG (human glioblastoma) cells were maintained in Dulbecco's Modified Eagle Medium (DMEM) 10% fetal calf serum (FCS, Gibco). A375 (human melanoma), A549 (human lung adenocarcinoma) and HEP3B (human hepatoma) cells were maintained in Dulbecco's Modified Eagle Medium/Nutrient Mixture F-12 (DMEM/F12) 10% FCS.
(§4) Media were supplemented with 2 mM GlutaMAX, and 100 U/mL penicillin, 100 μg/mL streptomycin (Life Technologies, Carlsbad, Calif., USA). Cell cultures were maintained at 37° C. in a humidified incubator in an atmosphere of 5% CO2 (Sanyo, Japan).
(§5) Viability assays were performed as described in Example 102.

[4] = tested on: GBM2 (human glioblastoma); test: viability assay (Table 2); format: cell-based
Method: as §2, §3, §4, §5

[5] = tested on: HT168 (human melanoma); test: viability assay (Table 2); format: cell-based
Method: as §2
HT168 (human melanoma), HT199 (human melanoma), HT29 (human colorectal adenocarcinoma), MOLT4 (human leukemia) and U937 (human lymphoma) cells were maintained in Roswell Park Memorial Institute 1640 medium (RPMI-1640) 10% FCS. SKOV-3 cells were maintained in Dulbecco's Modified Eagle Medium/McCoy's medium (DMEM/McCoy) 10% FCS.
as §4, §5

[6] = tested on: mouse mammary carcinoma 4T1; test: resazurin viability assay, 72 h (Table 1); format: cell-based; conditions: 72h incubation, 156 nM-100 μM
Text: (§6) In our experiments three different cell lines were used. Cells were purchased from the American Type Culture Collection (ATCC, Manassas, Va., USA). The human breast adenocarcinoma cell line, MCF-7 cells were maintained in Dulbecco's Modified Eagle Medium/Nutrient Mixture F-12 (DMEM/F12) 10% fetal calf serum (FCS, Gibco) and mouse mammary carcinoma 4T1 and human promyelocytic leukemia, HL-60 cells were maintained in Roswell Park Memorial Institute 1640 medium (RPMI-1640) 10% FCS. Media were supplemented with 2 mM GlutaMAX, and 100 U/mL penicillin, 100 μg/mL streptomycin (Life Technologies, Carlsbad, Calif., USA). Cell cultures were maintained at 37° C. in a humidified incubator in an atmosphere of 5% CO2 (Sanyo, Japan).
as §2

[7] = tested on: human breast adenocarcinoma cell line, MCF-7; test: resazurin viability assay, 72 h (Table 1); format: cell-based; conditions: MCF7, 72h incubation, 156 nM-100 μM
Text: as §6, §2

[8] = tested on: human promyelocytic leukemia, HL-60 cells; test: resazurin viability assay, 72 h (Table 1); format: cell-based; conditions: 72h incubation, 156 nM-100 μM
Text: as §6, §2

| pIC50 [1] | melting point [°C] | pIC50 [3] | pIC50 [4] | pIC50 [5] | pIC50 [6] | pIC50 [7] | pIC50 [8] | SMILES | decrease in viability of human primary fibroblasts [2] |
| --- | --- | --- | --- | --- | --- | --- | --- | --- | --- |
| 6.03 | 155 to 156 | 5.70 | 5.30 | 5.52 | 5.73 | 5.83 | 5.91 | CC(C)(C)CC(C)(C)Nc1c(C(C)(C)C)[nH]c2c(C(N)=O)cnn12 [Example 22, 2-(Tert-butyl)-3-((2,4,4-trimethylpentan-2-yl)amino)-1H-imidazo[1,2-b]pyrazole-7-carbox-amide] | Significant decrease in viability was not apparent |
|  | 159 |  |  |  | 4.63 | 4.76 | 5.35 | CC(C)(C)CC(C)(C)Nc1c(C(C)(C)C)[nH]c2c(C(=O)Nc3cccc(F)c3)cnn12 [Example 49, 2-(Tert-butyl)-N-(3-fluorophenyl)-3-((2,4,4-trimethylpentan-2-yl)amino)-1H-imidazo[1,2-b]pyrazole-7-carboxamide] |  |
|  | 188 |  |  |  | 5.13 | 5.63 | 6.74 | CC(C)(C)CC(C)(C)Nc1c(C(C)(C)C)[nH]c2c(C(=O)Nc3ccc(F)cc3)cnn12 [Example 50, 2-(Tert-butyl)-N-(4-fluorophenyl)-3-((2,4,4-trimethylpentan-2-yl)amino)-1H-imidazo[1,2-b]pyrazole-7-carboxamide] |  |
|  | 153 to 154 |  |  |  | < 4.30 | < 4.30 | 4.71 | CC(C)(C)CC(C)(C)Nc1c(C(C)(C)C)[nH]c2c(C(=O)Nc3ccc(Br)cc3)cnn12 [Example 52, N-(4-Bromophenyl)-2-(tert-butyl)-3-((2,4,4-trimethylpentan-2-yl)amino)-1H-imidazo[1,2-b]pyrazole-7-carboxamide] |  |
|  | 199 |  |  |  | 4.57 | 5.00 | 5.12 | CC(C)(C)CC(C)(C)Nc1c(C(C)(C)C)[nH]c2c(C(=O)Nc3ccc([N+](=O)[O-])cc3)cnn12 [Example 53, 2-(Tert-butyl)-N-(4-nitrophenyl)-3-((2,4,4-trimethylpentan-2-yl)amino)-1H-imidazo[1,2-b]pyrazole-7-carboxamide] |  |
|  | 199 |  |  |  | < 4.30 | 5.01 | 5.82 | CC(C)(C)CC(C)(C)Nc1c(C(C)(C)C)[nH]c2c(C(=O)Nc3ccc(C#N)cc3)cnn12 [Example 54, 2-(Tert-butyl)-N-(4-cyanophenyl)-3-((2,4,4-trimethylpentan-2-yl)amino)-1H-imidazo[1,2-b]pyrazole-7-carboxamide] |  |
|  | 127 to 128 |  |  |  | < 4.30 | < 4.30 | 5.07 | CCOC(=O)c1ccc(NC(=O)c2cnn3c(NC(C)(C)CC(C)(C)C)c(C(C)(C)C)[nH]c23)cc1 [Example 55, Ethyl 4-(2-(tert-butyl)-3-((2,4,4-trimethylpentan-2-yl)amino)-1H-imidazo[1,2-b]pyrazole-7-carbox-amido)benzoate] |  |
|  | 169 to 170 |  |  |  | < 4.30 | 4.66 | 5.41 | CSc1ccc(NC(=O)c2cnn3c(NC(C)(C)CC(C)(C)C)c(C(C)(C)C)[nH]c23)cc1 [Example 56, 2-(Tert-butyl)-N-(4-(methylthio)phenyl)-3-((2,4,4-trimethylpentan-2-yl)amino)-1H-imidazo[1,2-b]pyrazole-7-carboxamide] |  |
|  | 176 to 177 |  |  |  | 4.93 | 5.00 | 6.53 | CN(C)c1ccc(NC(=O)c2cnn3c(NC(C)(C)CC(C)(C)C)c(C(C)(C)C)[nH]c23)cc1 [Example 57, 2-(Tert-butyl)-N-(4-(dimethylamino)phenyl)-3-((2,4,4-trimethylpentan-2-yl)amino)-1H-imidazo[1,2-b]pyrazole-7-carboxamide] |  |
|  | 174 |  |  |  | < 4.30 | < 4.30 | 6.20 | CC(C)(C)CC(C)(C)Nc1c(C(C)(C)C)[nH]c2c(C(=O)Nc3ccc(F)cc3F)cnn12 [Example 58, 2-(Tert-butyl)-N-(2,4-difluorophenyl)-3-((2,4,4-trimethylpentan-2-yl)amino)-1H-imidazo[1,2-b]pyrazole-7-carboxamide] |  |
|  | 162 to 164 |  |  |  | 4.72 | 4.99 | 5.62 | CC(C)(C)CC(C)(C)Nc1c(C(C)(C)C)[nH]c2c(C(=O)Nc3ccc(F)c(F)c3)cnn12 [Example 59, 2-(Tert-butyl)-N-(3,4-difluorophenyl)-3-((2,4,4-trimethylpentan-2-yl)amino)-1H-imidazo[1,2-b]pyrazole-7-carboxamide] |  |
